pIC50: −log10 of the molar value. Values after ≈ are worked out from the molar mass of the structure shown.
What was measured:
Influenza A virus = assay: Antiviral activity against Influenza A virus H1N1; type: functional, organism-based
MCF7 = assay: Cytotoxicity against human MCF7 cells assessed as cell growth inhibition; type: functional, cell-based
HeLa = assay: Cytotoxicity against human HeLa cells assessed as cell growth inhibition; type: functional, cell-based
Candida albicans = assay: Antifungal activity against Candida albicans ATCC 10231 assessed as fungal growth inhibition by agar dilution method; type: functional
Staphylococcus aureus = assay: Antibacterial activity against Staphylococcus aureus S014 assessed as bacterial cell growth inhibition by agar dilution method; type: functional
Bacillus subtilis = assay: Antibacterial activity against Bacillus subtilis S028 assessed as bacterial cell growth inhibition by agar dilution method; type: functional
Escherichia coli = assay: Antibacterial activity against Escherichia coli S002 assessed as bacterial cell growth inhibition by agar dilution method; type: functional

| SMILES | pIC50 (MCF7) | pIC50 (HeLa) | MIC (Candida albicans) | MIC (Staphylococcus aureus) | MIC (Bacillus subtilis) | MIC (Escherichia coli) | other results |
| --- | --- | --- | --- | --- | --- | --- | --- |
| CC(=O)C[C@H](c1nc2ccccc2c(=O)n1[C@@H]1C[C@]2(OC1=O)c1ccccc1N1C(=O)C(C)(C)N[C@H]12)C(C)C | – | – | – | – | – | – | pIC50 (Influenza A virus): 4.09 |
| CC[C@@H]1[C@@H](C)O[C@@](O)([C@@H](C)[C@H](O)[C@H](C)[C@H]2OC(=O)/C=C/C=C/[C@H](C)[C@@H]([C@@H](C)[C@@H](O)[C@H](C)[C@@]3(O)C[C@@H](O[C@H]4C[C@H](O)[C@H](O)[C@H](C)O4)[C@H](C)[C@@H](C)O3)OC(=O)/C=C/C=C/[C@@H]2C)C[C@H]1O[C@H]1C[C@H](O)[C@H](O)[C@H](C)O1 | 6.72 | 6.72 | – | – | – | – | – |
| O=C1NC2c3nc4ccccc4c(=O)n3[C@H]1C[C@@]21c2ccccc2N2C(=O)[C@@H]3CCCN3[C@H]21 | – | – | – | – | – | – | pIC50 (Influenza A virus): 4.09 |
| CC[C@@H]1[C@@H](C)O[C@@](O)([C@@H](C)[C@H](O)[C@H](C)[C@H]2OC(=O)/C=C/C=C/[C@H](C)[C@@H]([C@@H](C)[C@@H](O)[C@H](C)[C@@]3(O)C[C@@H](O[C@H]4C[C@H](O)[C@H](O)[C@H](C)O4)[C@H](CC)[C@@H](C)O3)OC(=O)/C=C/C=C/[C@@H]2C)C[C@H]1O[C@H]1C[C@H](O)[C@H](O)[C@H](C)O1 | 6.72 | 6.72 | – | – | – | – | – |
| C/N=C(/N)NCCC/C=C/CCC[C@H](C)[C@@H]1OC(=O)/C(C)=C/C=C/[C@H](C)[C@@H](O)C[C@H](O)[C@@H](C)[C@H](O)CC[C@H](C)[C@@H](O)C[C@@]2(O)O[C@@H](C[C@@H](OC(=O)CCCCC(C)C)C[C@H](O)C[C@@H](O)C[C@H](O)/C(C)=C/C=C/[C@H]1C)C[C@@H](O)[C@@H]2O | – | – | 1.65 µg/mL (≈ 1.47 µM) | 0.39 µg/mL (≈ 0.347 µM) | 0.2 µg/mL (≈ 0.178 µM) | 3.13 µg/mL (≈ 2.79 µM) | – |
| C/N=C(/NC)NCCC/C=C/CCC[C@H](C)[C@@H]1OC(=O)/C(C)=C/C=C/[C@H](C)[C@@H](O)C[C@H](O)[C@@H](C)[C@H](O)CC[C@H](C)[C@@H](O)C[C@@]2(O)O[C@@H](C[C@@H](OC(=O)CCCCCCCCC(C)C)C[C@H](O)C[C@@H](O)C[C@H](O)/C(C)=C/C=C/[C@H]1C)C[C@@H](O)[C@@H]2O | – | – | 1.65 µg/mL (≈ 1.38 µM) | 0.39 µg/mL (≈ 0.327 µM) | 0.2 µg/mL (≈ 0.168 µM) | 3.13 µg/mL (≈ 2.62 µM) | – |
| C/N=C(/N)NCCC/C=C/CCC[C@H](C)[C@@H]1OC(=O)/C(C)=C/C=C/[C@H](C)[C@@H](O)C[C@H](O)[C@@H](C)[C@H](O)CC[C@H](C)[C@@H](O)C[C@@]2(O)O[C@@H](C[C@@H](OC(=O)CCCCCCCC(C)C)C[C@H](O)C[C@@H](O)C[C@H](O)/C(C)=C/C=C/[C@H]1C)C[C@@H](O)[C@@H]2O | – | – | 1.65 µg/mL (≈ 1.42 µM) | 0.39 µg/mL (≈ 0.335 µM) | 0.2 µg/mL (≈ 0.172 µM) | 3.13 µg/mL (≈ 2.69 µM) | – |
| CC[C@@H]1[C@@H](C)O[C@@](O)([C@@H](C)[C@H](O)[C@H](C)[C@H]2OC(=O)/C=C/C=C/[C@H](C)[C@@H]([C@@H](C)[C@@H](O)[C@@H](C)[C@@]3(O)C[C@@H](O[C@H]4C[C@H](O)[C@H](O)[C@H](C)O4)[C@H](CC)[C@@H](C)O3)OC(=O)/C=C/C=C/[C@@H]2C)C[C@H]1OC | 6.72 | 6.72 | – | – | – | – | – |
| CCCC(CC)COC(=O)CC(=O)OC1CC(O)CC(O)CC(O)/C(C)=C/C=C/C(C)C(C(C)CCC/C=C/CCCN/C(=N/C)NC)OC(=O)/C(C)=C/C=C/C(C)C(O)CC(O)C(C)C(O)CCC(C)C(O)CC2(O)OC(C1)CC(O)C2O (centres undefined) | – | – | 1.65 µg/mL (≈ 1.38 µM) | – | – | – | – |
| C/N=C(\NC)NCCC/C=C/CCC[C@H](C)[C@@H]1OC(=O)/C(C)=C/C=C/[C@H](C)[C@@H](O)C[C@H](O)[C@@H](C)[C@H](O)CC[C@H](C)[C@@H](O)C[C@@]2(O)O[C@@H](C[C@@H](OC(=O)C(N)C(C)C)C[C@H](O)C[C@@H](O)C[C@H](O)/C(C)=C/C=C/[C@H]1C)C[C@@H](O)[C@@H]2O (some centres undefined) | – | – | 1.65 µg/mL (≈ 1.49 µM) | 0.39 µg/mL (≈ 0.352 µM) | 0.2 µg/mL (≈ 0.18 µM) | 3.13 µg/mL (≈ 2.82 µM) | – |
| CC[C@@H]1[C@@H](C)O[C@@](OC)([C@@H](C)[C@H](O)[C@H](C)[C@H]2OC(=O)/C=C/C=C/[C@H](C)[C@@H]([C@@H](C)[C@@H](O)[C@H](C)[C@@]3(OC)C[C@@H](O[C@H]4C[C@H](O)[C@H](O)[C@H](C)O4)[C@H](CC)[C@@H](C)O3)OC(=O)/C=C/C=C/[C@@H]2C)C[C@H]1O[C@H]1C[C@H](O)[C@H](O)[C@H](C)O1 | 6.72 | 6.72 | – | – | – | – | – |
| CCCC(CC)COC(=O)CC(=O)OC1CC(O)CC(O)CC(O)/C(C)=C/C=C/C(C)C(C(C)CCC/C=C/CCCN/C(N)=N/C)OC(=O)/C(C)=C/C=C/C(C)C(O)CC(O)C(C)C(O)CCC(C)C(O)CC2(O)OC(C1)CC(O)C2O (centres undefined) | – | – | 1.65 µg/mL (≈ 1.4 µM) | – | – | – | – |
| CC(=O)C[C@H](c1nc2ccccc2c(=O)n1[C@@H]1C[C@]2(OC1=O)c1ccccc1N1C(=O)C(C)(C)N(O)[C@H]12)C(C)C | – | – | – | – | – | – | pIC50 (Influenza A virus): 4.09 |
| CC(C)=C1NC(=O)[C@@H](C[C@]2(O)c3ccccc3N3C(=O)[C@H](C)N[C@H]32)n2c1nc1ccccc1c2=O | – | – | – | – | – | – | pIC50 (Influenza A virus): 4.09 |
| C/N=C(\NC)NCCC/C=C/CCC[C@H](C)[C@@H]1OC(=O)/C(C)=C/C=C/[C@H](C)[C@@H](O)C[C@H](O)[C@@H](C)[C@H](O)CC[C@H](C)[C@@H](O)C[C@@]2(O)O[C@@H](C[C@@H](O)C[C@H](OC(=O)CC(=O)O)C[C@@H](O)C[C@H](O)/C(C)=C/C=C/[C@H]1C)C[C@@H](O)[C@@H]2O | – | – | 1.65 µg/mL (≈ 1.5 µM) | 0.39 µg/mL (≈ 0.356 µM) | 0.2 µg/mL (≈ 0.182 µM) | 3.13 µg/mL (≈ 2.85 µM) | – |
| C/C1=C\C=C\[C@H](C)[C@@H](O)C[C@H](O)[C@@H](C)[C@H](O)CC[C@H](C)[C@@H](O)C[C@@]2(O)O[C@@H](C[C@@H](OC(=O)CCCCC(C)C)C[C@H](O)C[C@@H](O)C[C@H](O)/C(C)=C/C=C/[C@@H](C)[C@H]([C@@H](C)CCC/C=C/CCCNC(=N)N)OC1=O)C[C@@H](O)[C@@H]2O | – | – | 1.65 µg/mL (≈ 1.49 µM) | 0.39 µg/mL (≈ 0.352 µM) | 0.2 µg/mL (≈ 0.18 µM) | 3.13 µg/mL (≈ 2.82 µM) | – |
| CC[C@@H]1[C@@H](C)O[C@@](O)([C@@H](C)[C@H](O)[C@H](C)[C@H]2OC(=O)/C=C/C=C/[C@H](C)[C@@H]([C@@H](C)[C@@H](O)[C@H](C)[C@@]3(O)C[C@@H](O[C@H]4C[C@H](O)[C@H](O)[C@H](C)O4)[C@H](CC)[C@@H](C)O3)OC(=O)/C(C)=C/C=C/[C@@H]2C)C[C@H]1O[C@H]1C[C@H](O)[C@H](O)[C@H](C)O1 | 6.72 | 6.72 | – | – | – | – | – |
| CC[C@@H]1[C@@H](C)O[C@@](OC)([C@@H](C)[C@H](O)[C@H](C)[C@H]2OC(=O)/C=C/C=C/[C@H](C)[C@@H]([C@@H](C)[C@@H](O)[C@H](C)[C@@]3(O)C[C@@H](O[C@H]4C[C@H](O)[C@H](O)[C@H](C)O4)[C@H](CC)[C@@H](C)O3)OC(=O)/C=C/C=C/[C@@H]2C)C[C@H]1O[C@H]1C[C@H](O)[C@H](O)[C@H](C)O1 | 6.72 | 6.72 | – | – | – | – | – |
| CC[C@@H]1[C@@H](C)O[C@@](OC)([C@@H](C)[C@H](O)[C@H](C)[C@H]2OC(=O)/C=C/C=C/[C@H](C)[C@@H]([C@@H](C)[C@@H](O)[C@H](C)[C@@]3(OC)C[C@@H](O[C@H]4C[C@H](O)[C@H](O)[C@H](C)O4)[C@H](CC)[C@@H](C)O3)OC(=O)/C(C)=C/C=C/[C@@H]2C)C[C@H]1O[C@H]1C[C@H](O)[C@H](O)[C@H](C)O1 | 6.72 | 6.72 | – | – | – | – | – |
| CS[C@H]1NC(=O)[C@@](Cc2ccc(CCC=C(C)C)cc2)(SC)N(C)C1=O | – | 5.38 | – | – | – | – | – |
| CCCC(CC)COC(=O)CC(=O)OC1CC(O)CC2CC(O)C(O)C(O)(CC(O)C(C)CCC(O)C(C)C(O)CC(O)C(C)/C=C/C=C(\C)C(=O)OC(C(C)CCC/C=C/CCCN/C(N)=N\C)C(C)/C=C/C=C(\C)C(O)CC(O)C1)O2 (centres undefined) | – | – | 1.65 µg/mL (≈ 1.4 µM) | 0.39 µg/mL (≈ 0.33 µM) | 0.2 µg/mL (≈ 0.169 µM) | 3.13 µg/mL (≈ 2.65 µM) | – |
